PubChem BioAssay (NCI)
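The concentration for 50% growth inhibition is given as GI50. The concentration for full growth arrest is given as TGI.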

Key:
Assay in all cases: DTP human tumour cell line panel, 384-well format
HOP-62 NSCLC = tested on: HOP-62 NSCLC
SNB-75 CNS = tested on: SNB-75 CNS
UACC-257 melanoma = tested on: UACC-257 melanoma
MOLT-4 leukemia = tested on: MOLT-4 leukemia
IGROV1 ovarian = tested on: IGROV1 ovarian
SW-620 colon = tested on: SW-620 colon
HCT-15 colon = tested on: HCT-15 colon
UO-31 renal = tested on: UO-31 renal
NCI/ADR-RES ovarian = tested on: NCI/ADR-RES ovarian
SF-539 CNS = tested on: SF-539 CNS
SF-295 CNS = tested on: SF-295 CNS
A498 renal = tested on: A498 renal
HT29 colon = tested on: HT29 colon
NCI-H522 lung = tested on: NCI-H522 lung
RXF 393 renal = tested on: RXF 393 renal
SF-268 CNS = tested on: SF-268 CNS
ACHN renal = tested on: ACHN renal
OVCAR-4 ovarian = tested on: OVCAR-4 ovarian
HS 578T breast = tested on: HS 578T breast
UACC-62 melanoma = tested on: UACC-62 melanoma
SR leukemia = tested on: SR leukemia
NCI-H322M lung = tested on: NCI-H322M lung
MDA-MB-231 breast = tested on: MDA-MB-231 breast
OVCAR-8 ovarian = tested on: OVCAR-8 ovarian
NCI-H226 lung = tested on: NCI-H226 lung
EKVX NSCLC = tested on: EKVX NSCLC
RPMI-8226 leukemia = tested on: RPMI-8226 leukemia
NCI-H460 NSCLC = tested on: NCI-H460 NSCLC
T-47D breast = tested on: T-47D breast
K-562 leukemia = tested on: K-562 leukemia
BT-549 breast = tested on: BT-549 breast
HL-60(TB) leukemia = tested on: HL-60(TB) leukemia
DU-145 prostate = tested on: DU-145 prostate
OVCAR-3 ovarian = tested on: OVCAR-3 ovarian
HOP-92 NSCLC = tested on: HOP-92 NSCLC
SK-OV-3 ovarian = tested on: SK-OV-3 ovarian
LOX IMVI melanoma = tested on: LOX IMVI melanoma
TK-10 renal = tested on: TK-10 renal
SK-MEL-28 melanoma = tested on: SK-MEL-28 melanoma
PC-3 prostate = tested on: PC-3 prostate
COLO 205 colon = tested on: COLO 205 colon
MDA-MB-468 breast = tested on: MDA-MB-468 breast
CCRF-CEM leukemia = tested on: CCRF-CEM leukemia
CAKI-1 renal = tested on: CAKI-1 renal
SK-MEL-5 melanoma = tested on: SK-MEL-5 melanoma
MDA-MB-435 melanoma = tested on: MDA-MB-435 melanoma
SN12C renal = tested on: SN12C renal
MALME-3M melanoma = tested on: MALME-3M melanoma
OVCAR-5 ovarian = tested on: OVCAR-5 ovarian
MCF7 breast = tested on: MCF7 breast
A549 NSCLC = tested on: A549 NSCLC
KM12 colon = tested on: KM12 colon
786-0 renal = tested on: 786-0 renal
NCI-H23 lung = tested on: NCI-H23 lung
SNB-19 CNS = tested on: SNB-19 CNS
M14 melanoma = tested on: M14 melanoma
HCC-2998 colon = tested on: HCC-2998 colon

## CCCCCCCCCCCCCCCCCCOP(=O)([O-])OC1CC[N+](C)(C)CC1
HOP-62 NSCLC
  GI50: 11.4 µM
  TGI: 28.4 µM
SNB-75 CNS
  GI50: 68.8 µM
  TGI: > 100 µM
UACC-257 melanoma
  GI50: > 100 µM
  TGI: > 100 µM
MOLT-4 leukemia
  GI50: 7.26 µM
  TGI: 19.9 µM
IGROV1 ovarian
  GI50: 1.67 µM
  TGI: 3.99 µM
SW-620 colon
  GI50: 10 µM
  TGI: > 100 µM
HCT-15 colon
  GI50: 3.21 µM
  TGI: 11 µM
UO-31 renal
  GI50: 45.9 µM
  TGI: > 100 µM
NCI/ADR-RES ovarian
  GI50: > 100 µM
  TGI: > 100 µM
SF-539 CNS
  GI50: > 100 µM
  TGI: > 100 µM
SF-295 CNS
  GI50: 11.7 µM
  TGI: 61.9 µM
A498 renal
  GI50: 17.2 µM
  TGI: 92.2 µM
HT29 colon
  GI50: 2.9 µM
  TGI: 12.9 µM
NCI-H522 lung
  GI50: 8.69 µM
  TGI: 23.1 µM
RXF 393 renal
  GI50: 2.87 µM
  TGI: 18.1 µM
SF-268 CNS
  GI50: 22.2 µM
  TGI: 85.7 µM
ACHN renal
  GI50: 15.9 µM
  TGI: 30.6 µM
OVCAR-4 ovarian
  GI50: 25.7 µM
  TGI: 76.6 µM
HS 578T breast
  GI50: 32.8 µM
  TGI: > 100 µM
UACC-62 melanoma
  GI50: 23.2 µM
  TGI: > 100 µM
SR leukemia
  GI50: 0.406 µM
  TGI: 2 µM
NCI-H322M lung
  GI50: 60.9 µM
  TGI: > 100 µM
MDA-MB-231 breast
  GI50: 15.9 µM
  TGI: 52.7 µM
OVCAR-8 ovarian
  GI50: 39.9 µM
  TGI: > 100 µM
NCI-H226 lung
  GI50: 50 µM
  TGI: > 100 µM
EKVX NSCLC
  GI50: 32.5 µM
  TGI: > 100 µM
RPMI-8226 leukemia
  GI50: 0.32 µM
  TGI: 0.819 µM
NCI-H460 NSCLC
  GI50: 1.47 µM
  TGI: 14.7 µM
T-47D breast
  GI50: 29.6 µM
  TGI: > 100 µM
K-562 leukemia
  GI50: 61.5 µM
  TGI: > 100 µM
BT-549 breast
  GI50: 11.5 µM
  TGI: 24.3 µM
HL-60(TB) leukemia
  GI50: 1.45 µM
  TGI: 2.85 µM
DU-145 prostate
  GI50: 36.4 µM
  TGI: > 100 µM
OVCAR-3 ovarian
  GI50: 64 µM
  TGI: > 100 µM
HOP-92 NSCLC
  GI50: 11.6 µM
  TGI: 24.6 µM
SK-OV-3 ovarian
  GI50: > 100 µM
  TGI: > 100 µM
LOX IMVI melanoma
  GI50: 16.9 µM
  TGI: 54 µM
TK-10 renal
  GI50: 1.48 µM
  TGI: 3 µM
SK-MEL-28 melanoma
  GI50: > 100 µM
  TGI: > 100 µM
PC-3 prostate
  GI50: 0.362 µM
  TGI: 1.4 µM
COLO 205 colon
  GI50: 1.29 µM
  TGI: 16 µM
MDA-MB-468 breast
  GI50: 23.2 µM
  TGI: 49 µM
CCRF-CEM leukemia
  GI50: 1.8 µM
  TGI: 4.79 µM
CAKI-1 renal
  GI50: 10.8 µM
  TGI: 24.5 µM
SK-MEL-5 melanoma
  GI50: > 100 µM
  TGI: > 100 µM
MDA-MB-435 melanoma
  GI50: > 100 µM
  TGI: > 100 µM
SN12C renal
  GI50: 25.5 µM
  TGI: 98 µM
MALME-3M melanoma
  GI50: > 100 µM
  TGI: > 100 µM
OVCAR-5 ovarian
  GI50: 6.35 µM
  TGI: 36.4 µM
MCF7 breast
  GI50: 57.5 µM
  TGI: > 100 µM
A549 NSCLC
  GI50: 14.4 µM
  TGI: 28 µM
KM12 colon
  GI50: 0.757 µM
  TGI: 10.1 µM
786-0 renal
  GI50: 7.36 µM
  TGI: 31.3 µM
NCI-H23 lung
  GI50: > 100 µM
  TGI: > 100 µM
SNB-19 CNS
  GI50: 21.3 µM
  TGI: 77 µM
M14 melanoma
  GI50: 21.1 µM
  TGI: 62.8 µM
HCC-2998 colon
  GI50: 4.59 µM
  TGI: 26 µM
